From US20120004235A1, “METHODS TO TREAT CANCER” (Rutgers, The State University of New Jersey, priority 2009, published 2012)
pIC50: −log10 of the molar value.

Columns and labels:
[1] = system: Human HCT-116 Colon Tumor Xenograft Model; test: Test D xenograft, Compound 2 and metabolites; settings: 1.7 mg/kg/day IV, qod × 3 for 2 cycles
[2] = system: Human 786-0 Renal Cell Tumor Xenograft Model; test: Test D xenograft, Compound 2 free base; assay type: in vivo, nu/nu mice; settings: qod × 3 for 2 cycles
[3] = system: Human H1299 Lung Tumor Xenograft Model; test: Test D xenograft, Compound 2 free base; settings: qod × 3 for 2 cycles
[4] = system: Human LOX-IMVI Melanoma Tumor Xenograft Model; test: Test D xenograft, Compound 2 free base; settings: qod × 3 for 2 cycles
[5] = In vivo pharmacokinetics (Example 22); settings: in vivo in mouse, rat and dog
Method: (§1) The in vitro and in vivo activity of compound 2 and two of its metabolites (compound 5 and compound 6) were explored and compared with the activity of camptothecin Top1 inhibitors. […] In human HCT-116 colon ca, HT-29 colon ca and NCI-H460 NSCLC cells the concentration response for compound 2, compound 5 and compound 6 were the same. […] Compound 2 was administered intravenously on a QODx3 schedule for 2 cycles.

[6] = system: Human DLD-1 Colon Tumor Xenograft Model; test: Test D xenograft, Compound 2 free base; assay type: in vivo, nu/nu mice
[7] = system: RPMI 8226 (multiple myeloma) human tumor cell line; test: Cell TiterGlo cell growth inhibition (Test C); assay type: cell-based; settings: 72 hours exposure, ATP content luminescence
Method: The RPMI 8226 (multiple myeloma) human tumor cell line was exposed to Compound 2 (free base) (or simply referred to herein throughout as “Compound 2”) at concentrations covering a […] (0.1 nM -100 nM) with an exposure time of 72 hours and experimental endpoint of cell growth inhibition as determined by a Cell TiterGlo luminescence assay (Promega) for ATP content. At least two independent experiments were conducted. The results were plotted and trend lines were graphed. […] Exposure to Compound 2 produced exponential killing of cells in a manner consistent with potent inhibition of a critical molecular target.

[8] = system: human HCT-116 colon ca, HT-29 colon ca and NCI-H460 NSCLC cells; test: 72 hour exposure concentration response in tumor cells (Example 22); assay type: cell-based; settings: range over HCT-116, HT-29 and NCI-H460 cells and the three compounds
Method: as §1

[9] = In vitro plasma binding (Example 22); assay type: in vitro ADME; settings: in vitro in mouse, rat, dog, and human
Method: as §1

[10] = In vitro metabolic stability (Example 22); assay type: in vitro ADME; settings: in vitro in mouse, rat, dog, and human
Method: as §1

[11] = system: Human SK-MEL-3 Melanoma Tumor Xenograft Model; test: Test D xenograft, Compound 2 free base; assay type: in vivo, nu/nu mice; settings: qod × 3 for 2 cycles
Method: (§2) The anti-tumor activity of Compound 2 (free base) was evaluated against a variety of human tumor xenograft models. A summary of the studies, including tumor type, dosing and administration, growth inhibition, and major findings is presented below.

[12] = system: Human H460 Non-Small Cell Lung Carcinoma Tumor Xenograft Model; test: Test D xenograft, Compound 2 free base; assay type: in vivo, nu/nu mice; settings: 1.36 mg/kg/day IV, qod × 3 for 2 cycles
Method: as §2

[13] = system: HCT-116 human colon tumor xenograft; test: Compound 2 after oral administration vs. the HCT-116 xenograft model
[14] = In vitro partitioning into red blood cells (Example 22); assay type: in vitro ADME; settings: in vitro in mouse, rat, dog, and human
Method: as §1

[15] = system: Human NCI-H292 Lung Tumor Xenograft Model; test: Test D xenograft, Compound 2 free base; settings: for Increase in Life Span (ILS) / Tumor Growth Delay T-C / Tumor Growth Inhibition T/C (tumor volume): qod × 3 for 2 cycles
[16] = system: Human MDA-MB-231 Breast Tumor Xenograft Model; test: Test D xenograft, Compound 2 free base; settings: qod × 3 for 2 cycles
[17] = Body weight loss across the Example 22 xenograft studies; assay type: in vivo, mice; settings: all dosages IV QODx3 for 2 cycles, except the high dosages in HCT-15 and NCI-H292
Method: as §1

[18] = 1 mg/kg/day IV, qod × 3 for 2 cycles
[19] = 4 mg/kg/day IV/QODx3 for 2 cycles
[20] = 1.36 mg/kg/day PO, qod×3 weekly for 2 cycles
[21] = 2.72 mg/kg/day PO, qod×3 weekly for 2 cycles
[22] = PO dosages (0.68, 1.36, 2.72 mg/kg/day, qod×3 weekly for 2 cycles)

SMILES: CNCCn1c(=O)c2cc(OC)c(OC)cc2c2cnc3cc4c(cc3c21)OCO4 [Compound 2, 8,9-dimethoxy-2,3-methylenedioxy-5-[2-(N-methylamino)ethyl]-5H-dibenzo[c,h]1,6-naphthyridin-6-one]
- Increase in Life Span (ILS) [1]: 1.9x
- Tumor Growth Delay T-C [1]: 28 days
- Tumor Growth Inhibition T/C (tumor volume) [1]: 36.4%
- Increase in Life Span (ILS) ([2]; 1 mg/kg/day IV): 1.2x
- Tumor Growth Delay T-C ([2]; 1 mg/kg/day IV): 10 days
- Tumor Growth Inhibition T/C (tumor volume) ([2]; 1 mg/kg/day IV): 52.5%
- Increase in Life Span (ILS) ([2]; 1.36 mg/kg/day IV): 1.2x
- Tumor Growth Delay T-C ([2]; 1.36 mg/kg/day IV): 10 days
- Tumor Growth Inhibition T/C (tumor volume) ([2]; 1.36 mg/kg/day IV): 52.2%
- Increase in Life Span (ILS) ([2]; 1.7 mg/kg/day IV): 1.4x
- Tumor Growth Delay T-C ([2]; 1.7 mg/kg/day IV): 17 days
- Tumor Growth Inhibition T/C (tumor volume) ([2]; 1.7 mg/kg/day IV): 25.9%
- Increase in Life Span (ILS) ([3]; 1 mg/kg/day IV): 1.7x
- Tumor Growth Delay T-C ([3]; 1 mg/kg/day IV): 20 days
- Tumor Growth Inhibition T/C (tumor volume) ([3]; 1 mg/kg/day IV): 22.6%
- Increase in Life Span (ILS) ([3]; 1.36 mg/kg/day IV): 1.8x
- Tumor Growth Delay T-C ([3]; 1.36 mg/kg/day IV): 24 days
- Tumor Growth Inhibition T/C (tumor volume) ([3]; 1.36 mg/kg/day IV): 13.2%
- Increase in Life Span (ILS) ([3]; 1.7 mg/kg/day IV): 2.1x
- Tumor Growth Delay T-C ([3]; 1.7 mg/kg/day IV): 34 days
- Tumor Growth Inhibition T/C (tumor volume) ([3]; 1.7 mg/kg/day IV): 8.7%
- Increase in Life Span (ILS) ([4]; 1 mg/kg/day IV): 1.1x
- Tumor Growth Delay T-C ([4]; 1 mg/kg/day IV): 2 days
- Tumor Growth Inhibition T/C (tumor volume) ([4]; 1 mg/kg/day IV): 89.4%
- Increase in Life Span (ILS) ([4]; 2 mg/kg/day IV): 2.8x
- Tumor Growth Delay T-C ([4]; 2 mg/kg/day IV): 25 days
- Tumor Growth Inhibition T/C (tumor volume) ([4]; 2 mg/kg/day IV): 66.1%
- Tumor Growth Inhibition T/C (tumor volume) ([4]; 4 mg/kg/day IV): 39.1%
- clearance [5]: low-to-moderate clearance
- volume of distribution [5]: large volume of distribution
- Increase in Life Span (ILS) [6, 18]: 1.2x
- Tumor Growth Delay T-C [6, 18]: 8 days
- Tumor Growth Inhibition T/C (tumor volume) [6, 18]: 51.3%
- ILS (T/C) [6, 19]: 1.2x
- TGD (T-C) [6, 19]: 8 days
- pIC50 ([7]; read-out: IC50 concentration): 8.47
- IC90 ([7]; read-out: IC90 concentration): 30 nM
- pIC50 ([8]; read-out: IC50 concentrations): 9.19 to 9.30
- IC90 ([8]; read-out: IC90 concentrations): 1.8 to 2 nM
- plasma binding [9]: 88-93%
- metabolic stability [10]: high metabolic stability
- Increase in Life Span (ILS) ([11]; 1 mg/kg/day IV): 1.5x
- Tumor Growth Delay T-C ([11]; 1 mg/kg/day IV): 15 days
- Tumor Growth Inhibition T/C (tumor volume) ([11]; 1 mg/kg/day IV): 22.0%
- Increase in Life Span (ILS) ([11]; 1.36 mg/kg/day IV): 2.3x
- Tumor Growth Delay T-C ([11]; 1.36 mg/kg/day IV): 35 days
- Tumor Growth Inhibition T/C (tumor volume) ([11]; 1.36 mg/kg/day IV): 13.4%
- Increase in Life Span (ILS) ([11]; 1.7 mg/kg/day IV): 1.9x
- Tumor Growth Delay T-C ([11]; 1.7 mg/kg/day IV): 26 days
- Tumor Growth Inhibition T/C (tumor volume) ([11]; 1.7 mg/kg/day IV): 16.7%
- Increase in Life Span (ILS) [12]: 1.8x
- Tumor Growth Delay T-C [12]: 21 days
- Tumor Growth Inhibition T/C (tumor volume) [12]: 14.1%
- TGD [13, 20]: no effect on TGD
- TGI (T/C) [13, 20]: 57.6%
- ILS [13, 21]: 1.5 fold
- TGD (T-C) [13, 21]: 18 days
- toxic deaths [13, 22]: no toxic deaths
- weight loss [13, 22]: < 20%
- partitioning into red blood cells [14]: concentration dependent partitioning into red blood cells
- Increase in Life Span (ILS) ([15]; 1 mg/kg/day IV): 1.5x
- Tumor Growth Delay T-C ([15]; 1 mg/kg/day IV): 18 days
- Tumor Growth Inhibition T/C (tumor volume) ([15]; 1 mg/kg/day IV): 29.4%
- Increase in Life Span (ILS) ([15]; 1.36 mg/kg/day IV): 1.6x
- Tumor Growth Delay T-C ([15]; 1.36 mg/kg/day IV): 21 days
- Tumor Growth Inhibition T/C (tumor volume) ([15]; 1.36 mg/kg/day IV): 25.2%
- Increase in Life Span (ILS) ([15]; 1.7 mg/kg/day IV): 1.6x
- Tumor Growth Delay T-C ([15]; 1.7 mg/kg/day IV): 21 days
- Tumor Growth Inhibition T/C (tumor volume) ([15]; 1.7 mg/kg/day IV): 15.2%
- maximum body weight loss ([15]; high dosage, IV QODx3 for 2 cycles): 20.9%
- Increase in Life Span (ILS) ([16]; 1 mg/kg/day IV): 1.7x
- Tumor Growth Delay T-C ([16]; 1 mg/kg/day IV): 21 days
- Tumor Growth Inhibition T/C (tumor volume) ([16]; 1 mg/kg/day IV): 30.7%
- Increase in Life Span (ILS) ([16]; 1.36 mg/kg/day IV): >2.3x
- Tumor Growth Delay T-C ([16]; 1.36 mg/kg/day IV): >47 days
- Tumor Growth Inhibition T/C (tumor volume) ([16]; 1.36 mg/kg/day IV): 8.6%
- Increase in Life Span (ILS) ([16]; 1.7 mg/kg/day IV): 2.0x
- Tumor Growth Delay T-C ([16]; 1.7 mg/kg/day IV): 35 days
- Tumor Growth Inhibition T/C (tumor volume) ([16]; 1.7 mg/kg/day IV): 17.7%
- maximum body weight loss [17]: ≤ 20%
